This passage reports IC50, EC50 and AC50 results from ChEMBL document CHEMBL1201862, “PubChem BioAssay data set” (2004).

Activity calls are given as the source filed them.

For assay [1], the target named is DNA dC->dU-editing enzyme APOBEC-3A (Homo sapiens, UniProt P31941). The assay can be described thus: Dose Response confirmation of small molecule APOBEC3A DNA Deaminase Inhibitors via a fluorescence-based single-stranded DNA deaminase assay. [Related pubchem assays (depositor defined):AID493011, AID493024]. It is filed as functional.
Chain of DNA dC->dU-editing enzyme APOBEC-3A (P31941 whole entry): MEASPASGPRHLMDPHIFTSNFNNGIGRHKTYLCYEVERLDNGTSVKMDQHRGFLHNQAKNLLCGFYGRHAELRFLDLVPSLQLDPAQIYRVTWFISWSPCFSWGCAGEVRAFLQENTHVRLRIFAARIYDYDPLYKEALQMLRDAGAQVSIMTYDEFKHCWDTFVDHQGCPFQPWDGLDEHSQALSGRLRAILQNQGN
Assay [2] has as its target DNA dC->dU-editing enzyme APOBEC-3G (Homo sapiens, UniProt Q9HC16). Format: functional.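 Also: Dose-response counterscreen measuring inhibition of APOBEC3G DNA deaminase activity, run while confirming APOBEC3A inhibitors.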
Assay [3] concerns the target T1, Short transient receptor potential channel 4 (Mus musculus, UniProt Q9QUQ5).
T1 sequence (Q9QUQ5 whole entry): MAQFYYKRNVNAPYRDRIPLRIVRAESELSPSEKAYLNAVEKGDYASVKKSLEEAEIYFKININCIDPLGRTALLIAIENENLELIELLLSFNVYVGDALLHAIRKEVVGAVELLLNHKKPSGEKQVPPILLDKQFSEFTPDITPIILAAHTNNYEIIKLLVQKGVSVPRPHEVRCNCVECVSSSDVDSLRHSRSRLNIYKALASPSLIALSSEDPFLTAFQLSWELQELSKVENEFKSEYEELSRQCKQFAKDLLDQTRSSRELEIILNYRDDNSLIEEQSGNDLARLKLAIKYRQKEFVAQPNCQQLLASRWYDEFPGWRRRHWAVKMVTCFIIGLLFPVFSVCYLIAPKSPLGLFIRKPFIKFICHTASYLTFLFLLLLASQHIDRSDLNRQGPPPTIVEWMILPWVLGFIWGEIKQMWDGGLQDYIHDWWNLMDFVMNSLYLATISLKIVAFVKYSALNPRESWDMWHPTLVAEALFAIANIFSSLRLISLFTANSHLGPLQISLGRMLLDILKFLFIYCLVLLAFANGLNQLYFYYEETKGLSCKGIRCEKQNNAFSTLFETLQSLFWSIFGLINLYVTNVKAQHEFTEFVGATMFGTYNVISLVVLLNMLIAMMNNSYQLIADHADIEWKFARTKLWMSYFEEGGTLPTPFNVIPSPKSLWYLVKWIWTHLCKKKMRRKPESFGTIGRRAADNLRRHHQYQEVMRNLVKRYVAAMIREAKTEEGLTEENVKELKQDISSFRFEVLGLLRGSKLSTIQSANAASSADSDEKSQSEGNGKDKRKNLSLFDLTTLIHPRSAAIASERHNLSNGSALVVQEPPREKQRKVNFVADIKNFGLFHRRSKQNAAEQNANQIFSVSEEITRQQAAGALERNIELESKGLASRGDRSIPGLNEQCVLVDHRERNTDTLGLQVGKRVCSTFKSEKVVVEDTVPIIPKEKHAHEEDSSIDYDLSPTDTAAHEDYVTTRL
Put plainly: mouse TRPC4 channel activators, dose response, cell-based, HEK293 TRPC4/mu-opioid, Fluo-4 calcium (AID 434937). Format: functional.

In assay [4] the test system is BJ. The assay can be described thus: cytotoxicity toward BJ-TERT fibroblasts, dose response, cell-based, RAS-independent, luminescence (AID 1933). Format: functional. Particulars: Homo sapiens.
Assay [5] deals with BJ. Put plainly: cells. Format: functional, cell-based. As to conditions: Homo sapiens.
Assay [6] relates to BJ. Put plainly: cytotoxicity toward BJ-TERT-LT-ST fibroblasts, dose response, cell-based, RAS-independent, luminescence (AID 1935).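 Also: BJ fibroblasts immortalized with TERT plus LT and ST oncogenes.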 It is filed as functional. Particulars: Homo sapiens.
A short description of assay [7]: cytotoxicity toward DRD oncogenic fibroblasts, dose response, cell-based, non-viral oncogenic, luminescence (AID 1934). It is filed as functional. Particulars: Homo sapiens.
Assay [8] can be described thus: cytotoxicity in HEK-293T cells, dose response, cytotoxicity control for TCR NF-kB inhibitor project, luminescence, T-cell screen hits (AID 489026).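 Also: cells exposed to compound about 14 hours before the viability readout.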 Format: functional, cell-based.
Assay [9] is described as follows: Shn3 3'UTR reporter inhibitors, dose response, cell-based, Clone20 osteoblasts, firefly luciferase, cherry-picked (AID 624132).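 Also: firefly luciferase luminescence from reporter carrying the Shn3 3'UTR in osteoblasts.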 It is filed as functional.
Assay [10] is described as follows: control 3'UTR Renilla luciferase suppression, dose response, counter-screen for Shn3 inhibitor project, cell-based, Clone20-Shn3RL, cherry-picked (AID 624133). Format: functional. (A counterscreen serves to expose hits that act by an unwanted route or on another target.)
Assay [11] can be described thus: ZM109 Env clade C HIV-1 fusion inhibitors, dose response, HeLa effector, CEM target cells, luciferase, cherry-pick (AID 652058). Format: functional, cell-based.
Assay [12] in a line: inhibitors of clade B AD8 Env fusion, dose response, cell-based, cherry-pick (AID 652062).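 Also: luciferase signal from cell-cell fusion driven by HIV-1 clade B AD8 Env; potency is for inhibitors of fusion seen as a drop in luminescence.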 Format: functional.
Another assay deals with Large T antigen (Simian virus 40, UniProt P03070). Format: functional, Betapolyomavirus macacae.
Chain of Large T antigen (P03070 whole entry): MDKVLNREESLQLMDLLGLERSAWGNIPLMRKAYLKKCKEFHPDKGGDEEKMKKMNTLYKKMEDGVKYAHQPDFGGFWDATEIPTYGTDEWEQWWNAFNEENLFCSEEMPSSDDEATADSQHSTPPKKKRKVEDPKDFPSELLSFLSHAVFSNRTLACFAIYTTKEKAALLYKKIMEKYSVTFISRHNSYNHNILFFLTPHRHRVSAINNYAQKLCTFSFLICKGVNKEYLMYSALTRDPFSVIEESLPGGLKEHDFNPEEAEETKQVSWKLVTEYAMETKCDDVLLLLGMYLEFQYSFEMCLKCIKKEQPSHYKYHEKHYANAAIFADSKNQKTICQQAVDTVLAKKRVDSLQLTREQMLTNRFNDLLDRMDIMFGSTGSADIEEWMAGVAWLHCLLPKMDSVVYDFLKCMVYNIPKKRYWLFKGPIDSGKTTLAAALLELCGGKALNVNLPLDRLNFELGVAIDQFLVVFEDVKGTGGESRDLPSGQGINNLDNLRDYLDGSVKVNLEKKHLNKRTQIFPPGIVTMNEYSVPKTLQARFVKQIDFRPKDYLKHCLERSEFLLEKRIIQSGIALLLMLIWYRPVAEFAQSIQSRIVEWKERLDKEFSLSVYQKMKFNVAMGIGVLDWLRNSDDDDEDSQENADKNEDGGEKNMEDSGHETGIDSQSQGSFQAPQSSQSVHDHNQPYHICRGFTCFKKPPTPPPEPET
Assay [13] deals with Induced myeloid leukemia cell differentiation protein Mcl-1 (Homo sapiens, UniProt Q07820). It is filed as functional.
Chain of Induced myeloid leukemia cell differentiation protein Mcl-1 (Q07820 whole entry): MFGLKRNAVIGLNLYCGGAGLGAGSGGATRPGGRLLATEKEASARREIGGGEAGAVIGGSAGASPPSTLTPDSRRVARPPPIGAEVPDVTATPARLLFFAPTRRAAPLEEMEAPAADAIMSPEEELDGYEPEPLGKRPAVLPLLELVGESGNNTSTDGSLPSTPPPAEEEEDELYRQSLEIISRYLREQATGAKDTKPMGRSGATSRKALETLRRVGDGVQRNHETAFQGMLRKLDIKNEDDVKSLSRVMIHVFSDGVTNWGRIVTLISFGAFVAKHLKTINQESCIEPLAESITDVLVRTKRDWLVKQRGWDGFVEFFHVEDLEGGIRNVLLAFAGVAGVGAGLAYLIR
The target of assay [14] is T2, Replicative DNA helicase DnaB (Mycobacterium tuberculosis, UniProt P9WMR3).
T2 sequence (P9WMR3 whole entry): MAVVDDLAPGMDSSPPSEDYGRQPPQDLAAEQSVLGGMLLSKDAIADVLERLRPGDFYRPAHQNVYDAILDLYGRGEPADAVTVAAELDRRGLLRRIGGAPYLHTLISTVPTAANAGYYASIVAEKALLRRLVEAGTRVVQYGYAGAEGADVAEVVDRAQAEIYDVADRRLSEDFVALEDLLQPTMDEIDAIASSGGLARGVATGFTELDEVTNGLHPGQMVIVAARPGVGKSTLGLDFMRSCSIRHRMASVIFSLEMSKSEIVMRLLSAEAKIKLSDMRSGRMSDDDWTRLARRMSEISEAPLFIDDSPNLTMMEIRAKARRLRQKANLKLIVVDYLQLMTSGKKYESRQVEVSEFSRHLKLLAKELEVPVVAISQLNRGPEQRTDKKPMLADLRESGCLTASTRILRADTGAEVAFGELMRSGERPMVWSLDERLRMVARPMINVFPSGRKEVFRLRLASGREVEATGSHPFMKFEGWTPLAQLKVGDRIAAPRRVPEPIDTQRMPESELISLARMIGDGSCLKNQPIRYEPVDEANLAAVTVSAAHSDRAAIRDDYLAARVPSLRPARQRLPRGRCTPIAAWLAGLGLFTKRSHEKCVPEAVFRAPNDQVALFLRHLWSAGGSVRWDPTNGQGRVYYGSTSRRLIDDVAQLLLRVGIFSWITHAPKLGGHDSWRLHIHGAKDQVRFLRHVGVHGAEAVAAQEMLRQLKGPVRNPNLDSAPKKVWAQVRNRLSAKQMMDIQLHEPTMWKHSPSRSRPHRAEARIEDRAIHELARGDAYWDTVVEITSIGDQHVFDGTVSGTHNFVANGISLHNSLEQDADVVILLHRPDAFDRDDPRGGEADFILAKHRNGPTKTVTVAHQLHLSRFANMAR
Put plainly: DnaB intein splicing inhibitors, dose response, biochemical, cell-free fluorescence (AID 449749). Format: functional.

The next assay deals with T3, Protein RecA (Mycobacterium tuberculosis, UniProt P9WHJ3).
T3 sequence (P9WHJ3 whole entry): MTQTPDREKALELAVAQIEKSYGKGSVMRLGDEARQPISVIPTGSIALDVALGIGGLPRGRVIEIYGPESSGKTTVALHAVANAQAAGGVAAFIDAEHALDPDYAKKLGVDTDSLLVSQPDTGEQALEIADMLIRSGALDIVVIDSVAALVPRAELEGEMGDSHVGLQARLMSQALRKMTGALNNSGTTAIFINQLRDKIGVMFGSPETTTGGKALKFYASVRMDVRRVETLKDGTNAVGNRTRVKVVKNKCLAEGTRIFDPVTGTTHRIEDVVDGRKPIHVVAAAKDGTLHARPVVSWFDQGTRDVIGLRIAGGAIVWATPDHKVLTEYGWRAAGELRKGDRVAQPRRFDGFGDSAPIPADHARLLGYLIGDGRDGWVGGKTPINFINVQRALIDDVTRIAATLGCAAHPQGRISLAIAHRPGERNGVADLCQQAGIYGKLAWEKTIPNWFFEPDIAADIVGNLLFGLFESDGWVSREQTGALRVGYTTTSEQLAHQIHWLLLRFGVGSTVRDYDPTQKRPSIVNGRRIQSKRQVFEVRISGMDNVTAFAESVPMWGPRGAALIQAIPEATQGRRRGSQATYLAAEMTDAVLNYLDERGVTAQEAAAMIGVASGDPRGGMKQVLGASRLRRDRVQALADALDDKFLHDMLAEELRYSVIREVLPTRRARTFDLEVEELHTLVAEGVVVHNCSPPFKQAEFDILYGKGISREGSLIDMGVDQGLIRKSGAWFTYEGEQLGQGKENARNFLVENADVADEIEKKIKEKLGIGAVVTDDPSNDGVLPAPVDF
Put plainly: Fluorescence Cell-Free Homogeneous Dose Retest to Identify Inhibitors of RecA-Intein Splicing Activity. [Related pubchem assays (depositor defined):AID2097, AID2223, AID489010, AID492950]. It is filed as functional.

Assay [15] has as its target T4, Small ubiquitin-related modifier 1 (Homo sapiens, UniProt P63165). The assay can be described thus: inhibitors of SUMO1 peptide binding, dose response, biochemical, fluorescence polarization, uHTS hits (AID 624382). Format: functional. As to conditions: read-out: IC50_Mean. Background: In fluorescence polarisation assays a small probe gives low polarisation when free and higher when bound to something large.

Assay [16] addresses T4, Small ubiquitin-related modifier 1. The assay can be described thus: inhibitors of SUMO1 partner interactions, dose response, biochemical, FRET (AID 624383). Particulars: read-out: IC50_Mean. Format: functional.
Assay [17] addresses T5, Histone-lysine N-methyltransferase NSD2 (Homo sapiens, UniProt O96028).
T5 sequence (O96028 whole entry): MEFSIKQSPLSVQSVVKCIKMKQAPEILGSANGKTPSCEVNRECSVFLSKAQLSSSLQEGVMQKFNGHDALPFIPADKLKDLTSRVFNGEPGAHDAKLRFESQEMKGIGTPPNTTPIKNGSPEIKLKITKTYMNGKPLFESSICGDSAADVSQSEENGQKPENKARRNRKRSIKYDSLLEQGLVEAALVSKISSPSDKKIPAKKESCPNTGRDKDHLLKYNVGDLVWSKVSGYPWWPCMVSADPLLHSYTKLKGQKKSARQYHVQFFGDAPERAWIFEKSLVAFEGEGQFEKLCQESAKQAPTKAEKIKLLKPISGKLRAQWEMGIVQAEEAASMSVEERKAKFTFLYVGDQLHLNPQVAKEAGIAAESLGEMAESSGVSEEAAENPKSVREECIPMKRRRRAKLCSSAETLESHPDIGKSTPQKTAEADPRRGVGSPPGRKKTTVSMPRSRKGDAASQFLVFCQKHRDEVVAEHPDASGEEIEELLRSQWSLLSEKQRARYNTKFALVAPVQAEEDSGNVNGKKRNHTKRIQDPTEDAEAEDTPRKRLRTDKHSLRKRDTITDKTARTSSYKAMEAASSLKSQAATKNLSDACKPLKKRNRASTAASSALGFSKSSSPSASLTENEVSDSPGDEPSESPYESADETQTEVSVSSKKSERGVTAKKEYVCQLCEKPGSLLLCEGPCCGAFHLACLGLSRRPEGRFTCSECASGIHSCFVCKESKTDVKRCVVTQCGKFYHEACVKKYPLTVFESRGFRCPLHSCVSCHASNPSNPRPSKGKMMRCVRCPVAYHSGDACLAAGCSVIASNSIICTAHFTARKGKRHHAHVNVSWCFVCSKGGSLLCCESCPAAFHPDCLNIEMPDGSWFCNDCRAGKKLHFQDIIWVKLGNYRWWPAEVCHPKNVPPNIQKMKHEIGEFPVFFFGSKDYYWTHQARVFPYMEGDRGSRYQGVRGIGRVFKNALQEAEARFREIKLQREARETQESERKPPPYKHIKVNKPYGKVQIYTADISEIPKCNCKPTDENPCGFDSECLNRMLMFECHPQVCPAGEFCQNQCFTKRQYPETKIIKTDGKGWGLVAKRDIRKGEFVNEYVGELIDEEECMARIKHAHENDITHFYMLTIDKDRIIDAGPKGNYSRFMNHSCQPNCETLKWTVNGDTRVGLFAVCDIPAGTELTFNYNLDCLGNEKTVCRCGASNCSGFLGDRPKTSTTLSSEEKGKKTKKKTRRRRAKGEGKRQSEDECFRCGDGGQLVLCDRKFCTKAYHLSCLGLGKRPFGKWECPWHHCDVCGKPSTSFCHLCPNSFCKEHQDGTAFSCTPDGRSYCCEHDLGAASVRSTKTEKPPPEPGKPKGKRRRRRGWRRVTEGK
Format: biochemical.

Chain of DNA dC->dU-editing enzyme APOBEC-3G (Q9HC16 whole entry): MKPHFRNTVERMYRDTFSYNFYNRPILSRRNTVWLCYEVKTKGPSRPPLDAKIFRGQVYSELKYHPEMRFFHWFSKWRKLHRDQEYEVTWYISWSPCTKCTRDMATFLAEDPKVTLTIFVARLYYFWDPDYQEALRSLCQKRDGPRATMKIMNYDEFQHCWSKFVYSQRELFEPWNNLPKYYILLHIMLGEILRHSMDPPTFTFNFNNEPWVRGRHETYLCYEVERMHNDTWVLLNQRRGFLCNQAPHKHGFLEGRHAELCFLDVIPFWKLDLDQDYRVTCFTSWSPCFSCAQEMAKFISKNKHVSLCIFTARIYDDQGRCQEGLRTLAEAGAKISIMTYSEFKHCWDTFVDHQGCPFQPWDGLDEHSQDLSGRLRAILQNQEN
T4 sequence (P63165 whole entry): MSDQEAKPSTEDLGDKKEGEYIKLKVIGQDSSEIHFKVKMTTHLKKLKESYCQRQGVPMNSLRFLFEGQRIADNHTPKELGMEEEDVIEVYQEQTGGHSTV

Consider `COc1ccc2c(/C=C/c3cc[n+](C)cc3)c[nH]c2c1`, for which the IC50 in assay [1] is 6.12 µM (active); in assay [2], 6.31 µM (active).

Consider `CCOC(=O)C1(CCOc2ccccc2)CCN(Cc2ccc(OC)c(O)c2)CC1`, for which the EC50 (as a rule, the concentration at which the effect is half-maximal) in assay [3] was 473 nM (active).

On to `CCCc1nc2sc3c(SCC(=O)NCc4ccco4)ncnc3c2c2c1CCC2`, for which the IC50 in assay [1] was 15.8 µM (active); in [2], 25.3 µM (active).

Consider `O=C(O)Cc1ccc(S(=O)(=O)N2CCCC2)s1`, for which the IC50 in assay [1] is 17.4 µM (active); in [2], 66.5 µM (active).

Consider `COc1cc(C)c(NC(=O)C2CCN(S(=O)(=O)c3cccs3)CC2)cc1OC`, for which the figures for the IC50 in assay [1] and in assay [2] were 12 µM (active) and 13.9 µM (active), respectively.

Take `CCc1cc2c(s1)N1Cc3ccccc3C(C(=O)c3cccc([N+](=O)[O-])c3)=C1NC2=O`: the concentration giving a half-maximal response (EC50) in the assay with BJ [4] is > 150 µM (not active); with BJ [5] it was > 150 µM (not active); in the assay with BJ [6], > 150 µM (inconclusive); in [7], > 150 µM (not active). In addition, the IC50 in [8] was > 80 µM (inactive).

`O=C(Nc1ccc(S(=O)(=O)N2CCN(Cc3ccccc3)CC2)cc1)c1cnccn1`: in assay [8], the IC50 is > 80 µM (inactive). Further, the AC50 (usually the midpoint of the concentration-response curve, whichever way the signal moves) in assay [9] is 1.65 µM (active); in assay [10] it was 4.15 µM (active); in [11] it was < 260 nM (active); in assay [12], 4.9 µM (active).

Turning to `CC(=Nc1cc(C)cc(C)c1)N(C)CCNS(=O)(=O)c1ccc(Cl)cc1`, the results for the IC50 in assay [1] and in assay [2] were 2.67 µM (active) and 4.92 µM (active), respectively.

Regarding `CN1C(=O)/C(=C/c2ccc(-c3ccccc3[N+](=O)[O-])o2)S/C1=N\c1ccc(Cl)c(C(=O)O)c1`, the IC50 at Large T antigen is 52.8 µM (active); in [13], 14 µM (active); in assay [15] it was > 66.6 µM (inactive); in [16], 17.7 µM (active). Besides, the AC50 was 10.6 µM (active) in [14] and 4.58 µM (active) in assay [17]. In addition, the concentration for a half-maximal effect (EC50) at Protein RecA is 5.51 µM (active).
